US8455620B2, “Cloning and expression of a novel phytase” (Feed Research Institute Chinese Academy of Agricultural …, priority 2006, dated 2013)
Entries after “also recorded” stand apart in the source; their conditions may differ. Like-named read-outs stand apart in the source and are kept apart here.

Key:
r-AppA = format: biochemical, Yersinia intermedia; conditions: 1 mM, pH 4.5
trypsin = assay: Protease resistance of r-AppA, incubation with trypsin; format: biochemical; conditions: 0.025 mg/ml phytase, 0.1 mg/ml trypsin, 37° C., 5 min to 2 h
Method: (§1) To determine the protease resistance, the purified phytase (0.025 mg/ml) was incubated with 0.1 mg/ml of pepsin and trypsin at 37° C. And then, sample incubated was collected respectively at 5 min, 10 min, 20 min, 30 min, 1 h, and 2 hs.

pH stability of r-AppA = format: physicochemical; conditions: 37° C.
Method: (§2) The r-AppA purified through Sephacryl S-200 was investigated an enzyme activity of phytase, according to temperature and pH. The effect of pH on phytase activity was determined using the following buffer solutions: glycine-HCl, pH 1.5-3.5; Na acetate-acetic acid, pH 3.5-6.0; Tris-HCl, pH 6.0-8.5, and glycine-NaOH, pH 8.5-10. All buffers used for dilution contained 0.05% BSA and 0.05% Triton. As is shown in FIG. 2, the enzyme activity varied with pH. […] 70% of the enzyme activity was still maintained at pH 2.5, and 65% of the enzyme activity was still maintained at pH 5.5. […] And over 70% activity still remained at pH 1.0-2.0.

[1] = Specific activity of purified r-AppA, ferrous sulfate-molybdenum blue method; format: biochemical; conditions: r-AppA purified through Sephacryl S-200; pH 4.5; protein by Lowry method
Method: A total of 72 transformants were analyzed for phytase activity by ferrous sulfate-molybdenum blue method. 950 μl of substrate solution (4 mM sodium phytase in 0.25M sodium acetate buffer, pH5.0) was added to 50 μl diluted enzyme solution, which was reacted at 37° C. for 30 minutes. Then, 1 mL of 10% TCA (trichloroacetic acid) solution was added to stop the reaction. As a control, TCA solution was added into the enzyme solution to inactivate the enzyme and then substrate solution was added. After the reaction has terminated, 2 mL of reagent C (0.576M acid sulfate, 1% ammonium molybdate, 7.32% Ferrous sulfate.7H2O) was added, and left for 10 minutes. The intensity of the blue color was measured at 700 nm, and activities in enzyme solution and in a control were measured. 1 unit of phytase activity was determined to be the enzyme amount releasing 1 μmol of phosphate for 1 minute. […]
In order to determinate the specific activity, the concentration of the r-AppA purified through Sephacryl S-200 was determined by the Lowry method, and the enzyme activity of the r-AppA purified was determined by ferrous sulfate-molybdenum blue method at pH 4.5. As a result, the specific activity of r-AppA purified was 3960±248 U/mg, which is the highest specific activity, comparing to other phytases recorded previously.

[2] = Heat stability of r-AppA at 80° C.; format: physicochemical
Method: (§3) As is shown in FIG. 3A, the enzyme activity varied with temperature. The temperature optima were determined at the pH optimum (pH 4.5) ranging the temperature values from 20 to 80° C. […] As is shown in FIG. 3B, when the enzyme was left at 80° C. for 10 minutes, over 50% of the activity was remained, and 40% of the activity was remained, at 80° C. for 1 hour. Compared to AppA from E. coli, which was widely used in feed industry as a feed additive, the r-AppA are higher stability at higher temperatures.

pepsin = assay: Protease resistance of r-AppA, incubation with pepsin; format: biochemical; conditions: 0.025 mg/ml phytase, 0.1 mg/ml pepsin, 37° C., 5 min to 2 h
Method: as §1

[3] = Enzyme activity of r-AppA according to temperature and pH; format: biochemical
Method: A total of 72 transformants were analyzed for phytase activity by ferrous sulfate-molybdenum blue method. 950 μl of substrate solution (4 mM sodium phytase in 0.25M sodium acetate buffer, pH5.0) was added to 50 μl diluted enzyme solution, which was reacted at 37° C. for 30 minutes. Then, 1 mL of 10% TCA (trichloroacetic acid) solution was added to stop the reaction. As a control, TCA solution was added into the enzyme solution to inactivate the enzyme and then substrate solution was added. After the reaction has terminated, 2 mL of reagent C (0.576M acid sulfate, 1% ammonium molybdate, 7.32% Ferrous sulfate.7H2O) was added, and left for 10 minutes. The intensity of the blue color was measured at 700 nm, and activities in enzyme solution and in a control were measured. 1 unit of phytase activity was determined to be the enzyme amount releasing 1 μmol of phosphate for 1 minute. Two days after methanol induction, 11 transformants out of 72 produced phytase activity from 48 to 270 U/mL of medium. Obviously, the ORF obtained above, was a novel gene, which encoded a polypeptide with phytase activity. The polypeptide with phytase activity, which encoded by mature region of OFR, was named r-AppA.
as §2, §3

## [Mg+2] [Mg]
r-AppA
  Enzyme activity of r-AppA (control = 100): 94

## [Ni+2] [Ni]
r-AppA
  Enzyme activity of r-AppA (control = 100): 98

## [K+] [K]
r-AppA
  Enzyme activity of r-AppA (control = 100): 99

## [Mn+2] [Mn]
r-AppA
  Enzyme activity of r-AppA (control = 100): 104
  effect on enzyme activity of r-AppA, in words: weakly enhanced

## [Na+] [Na]
r-AppA
  Enzyme activity of r-AppA (control = 100): 95

## [Li+] [Li]
r-AppA
  Enzyme activity of r-AppA (control = 100): 95

## CCCCCCCCCCCCOS(=O)(=O)[O-].[Na+] [SDS]
r-AppA
  Enzyme activity of r-AppA (control = 100): 9
  effect on enzyme activity of r-AppA, in words: almost lost

## [Fe+2] [Fe]
r-AppA
  Enzyme activity of r-AppA (control = 100): 47
r-AppA; listed as Fe^2+
  effect on enzyme activity of r-AppA, in words: obviously inhibited; also recorded: strongly inhibited

## [Cu+2] [Cu]
r-AppA
  Enzyme activity of r-AppA (control = 100): 61
r-AppA; listed as Cu^2+
  effect on enzyme activity of r-AppA, in words: obviously inhibited; also recorded: strongly inhibited

## [Ag+] [Ag]
r-AppA
  Enzyme activity of r-AppA (control = 100): 84

## [Ca+2] [Ca]
r-AppA
  Enzyme activity of r-AppA (control = 100): 98

## O=C(O)CN(CCN(CC(=O)O)CC(=O)O)CC(=O)O [EDTA]
r-AppA
  Enzyme activity of r-AppA (control = 100): 101
  effect on enzyme activity of r-AppA, in words: not significantly changed

## [Zn+2] [Zn]
r-AppA
  Enzyme activity of r-AppA (control = 100): 44
r-AppA; listed as Zn^2+
  effect on enzyme activity of r-AppA, in words: obviously inhibited; also recorded: strongly inhibited

## [Co+2] [Co]
r-AppA
  Enzyme activity of r-AppA (control = 100): 93

## r-AppA: polypeptide with phytase activity encoded by mature region of the ORF from Yersinia intermedia H-27, expressed in Pichia pastoris (SEQ ID NO: 3)
trypsin
  phytase activity after incubation with trypsin: not significantly changed
trypsin; listed as phytase
  phytase activity after incubation with trypsin: strong resistance
pH stability of r-AppA; pH 1.0-2.0, 2 hours
  activity remained (pH stability): over 70%
pH stability of r-AppA; pH 2.5-10, 2 hours
  activity remained (pH stability): over 85%
[1]
  specific activity: 3960±248 U/mg
[2]; 80° C. for 10 minutes
  activity remained (heat stability): over 50%
[2]; 80° C. for 1 hour
  activity remained (heat stability): 40%
pepsin
  phytase activity after incubation with pepsin: not significantly changed
pepsin; listed as phytase
  phytase activity after incubation with pepsin: strong resistance
[3]; at pH 2.5
  enzyme activity maintained (relative to maximum): 70%
[3]; at pH 4.5, 20 to 80° C.
  temperature of highest activity (optimal temperature): 55 °C
[3]; at pH 5.5
  enzyme activity maintained (relative to maximum): 65%
[3]; buffers pH 1.5-10
  pH of highest activity (optimal pH): 4.5
